Experimental data from patent publication US20100209345A1, “Fluorinated Ligands for Targeting Peripheral Benzodiazepine Receptors” (Australian Nuclear Science & Technology Organisation, priority 2006, published 2010).

Test: Biodistribution of 18F-labelled tracers in rats
Type: in vivo
Summary of the method: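 Sprague-Dawley rats received 18F tracer, and brain and peripheral tissues were analysed at 15 and 30 min and 1 and 4 h post-injection. For specificity, rats were pretreated 5 min beforehand with PK11195 or Ro 5-4864 (PBR) or flumazenil (CBR), each at 1 mg/kg.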

[1] = SD rats, 15 min, decay correction not stated
[2] = SD rats, 4 hours, decay correction not stated
[3] = rats, 15 min, corrected for decay of 18F
[4] = rats, 15 min, not corrected for decay of 18F
[5] = rats, 30 min, corrected for decay of 18F
[6] = rats, 30 min, not corrected for decay of 18F
[7] = rats, 60 min (1 hour), not corrected for decay of 18F
[8] = rats, 60 min, corrected for decay of 18F
[9] = rats, 4 hours, corrected for decay of 18F
[10] = rats, 4 hours, not corrected for decay of 18F

Structure (SMILES): CCN(CC)C(=O)Cc1c(-c2ccc(OCCCF)cc2)nc2ccc(Cl)cn12 [PBR111, 2-(2-(4-(3-fluoropropoxy)phenyl)-6-chloroimidazo[1,2-a]pyridin-3-yl)-N,N-diethylacetamide]
- Biodistribution: Blood [1]: 0.4 % ID/g
- Biodistribution: Bone [1]: 0.87 % ID/g
- Biodistribution: Kidney [1]: 3.2 % ID/g
- Biodistribution: Olfactory bulbs [1]: 0.64 % ID/g
- Biodistribution: Adrenals (SD rats, 30 min, decay correction not stated): 6.5 % ID/g
- Biodistribution: Adrenals [2]: 16 % ID/g
- Biodistribution: Blood [2]: 0.1 % ID/g
- Biodistribution: Bone [2]: 4.3 % ID/g
- Biodistribution: Kidney [2]: 2.3 % ID/g
- Biodistribution: Olfactory bulbs [2]: 0.41 % ID/g
- Biodistribution: Bone [3]: 0.87 ± 0.12 % ID/g
- Biodistribution: Heart [3]: 6.76 ± 0.82 % ID/g
- Biodistribution: Lungs [3]: 14.39 ± 2.19 % ID/g
- Biodistribution: Skin [3]: 0.34 ± 0.03 % ID/g
- Biodistribution: Adrenals [4]: 8.36 ± 2.02 % ID/g
- Biodistribution: Bladder [4]: 0.67 ± 0.36 % ID/g
- Biodistribution: Blood [4]: 0.48 ± 0.11 % ID/g
- Biodistribution: Bone [4]: 0.99 ± 0.18 % ID/g
- Biodistribution: Brain [4]: 0.31 ± 0.06 % ID/g
- Biodistribution: GIT [4]: 1.21 ± 0.11 % ID/g
- Biodistribution: Heart [4]: 7.75 ± 1.08 % ID/g
- Biodistribution: Kidney [4]: 5.18 ± 0.67 % ID/g
- Biodistribution: Liver [4]: 1.54 ± 0.20 % ID/g
- Biodistribution: Lungs [4]: 16.45 ± 2.81 % ID/g
- Biodistribution: Muscle [4]: 0.68 ± 0.16 % ID/g
- Biodistribution: Olfactory bulbs [4]: 0.74 ± 0.14 % ID/g
- Biodistribution: Pancreas [4]: 2.33 ± 0.33 % ID/g
- Biodistribution: Skin [4]: 0.39 ± 0.06 % ID/g
- Biodistribution: Spleen [4]: 8.25 ± 2.25 % ID/g
- Biodistribution: Stomach [4]: 0.95 ± 0.23 % ID/g
- Biodistribution: Testes [4]: 0.35 ± 0.05 % ID/g
- Biodistribution: Thymus [4]: 1.07 ± 0.23 % ID/g
- Biodistribution: Thyroid [4]: 11.40 ± 0.33 % ID/g
- Biodistribution: Bone [5]: 1.22 ± 0.10 % ID/g
- Biodistribution: Heart [5]: 6.63 ± 0.35 % ID/g
- Biodistribution: Lungs [5]: 8.41 ± 0.77 % ID/g
- Biodistribution: Skin [5]: 0.37 ± 0.02 % ID/g
- Biodistribution: Adrenals [6]: 9.06 ± 3.47 % ID/g
- Biodistribution: Bladder [6]: 0.76 ± 0.16 % ID/g
- Biodistribution: Blood [6]: 0.33 ± 0.11 % ID/g
- Biodistribution: Bone [6]: 1.35 ± 0.27 % ID/g
- Biodistribution: Brain [6]: 0.19 ± 0.04 % ID/g
- Biodistribution: GIT [6]: 1.38 ± 0.36 % ID/g
- Biodistribution: Heart [6]: 7.30 ± 0.90 % ID/g
- Biodistribution: Kidney [6]: 4.77 ± 1.05 % ID/g
- Biodistribution: Liver [6]: 0.94 ± 0.28 % ID/g
- Biodistribution: Lungs [6]: 9.27 ± 1.60 % ID/g
- Biodistribution: Muscle [6]: 0.62 ± 0.15 % ID/g
- Biodistribution: Olfactory bulbs [6]: 0.60 ± 0.14 % ID/g
- Biodistribution: Pancreas [6]: 1.49 ± 0.29 % ID/g
- Biodistribution: Skin [6]: 0.41 ± 0.06 % ID/g
- Biodistribution: Spleen [6]: 6.54 ± 1.35 % ID/g
- Biodistribution: Stomach [6]: 1.18 ± 0.34 % ID/g
- Biodistribution: Testes [6]: 0.38 ± 0.07 % ID/g
- Biodistribution: Thymus [6]: 1.23 ± 0.47 % ID/g
- Biodistribution: Thyroid [6]: 13.24 ± 4.62 % ID/g
- Biodistribution: Adrenals [7]: 12.11 ± 3.32 % ID/g
- Biodistribution: Bladder [7]: 1.24 ± 0.29 % ID/g
- Biodistribution: Blood [7]: 0.24 ± 0.08 % ID/g
- Biodistribution: Bone [7]: 2.41 ± 0.24 % ID/g
- Biodistribution: Brain [7]: 0.17 ± 0.04 % ID/g
- Biodistribution: GIT [7]: 1.89 ± 0.37 % ID/g
- Biodistribution: Heart [7]: 8.41 ± 1.91 % ID/g
- Biodistribution: Kidney [7]: 5.08 ± 1.23 % ID/g
- Biodistribution: Liver [7]: 0.82 ± 0.22 % ID/g
- Biodistribution: Lungs [7]: 7.29 ± 2.12 % ID/g
- Biodistribution: Muscle [7]: 0.55 ± 0.11 % ID/g
- Biodistribution: Olfactory bulbs [7]: 0.65 ± 0.14 % ID/g
- Biodistribution: Pancreas [7]: 1.24 ± 0.36 % ID/g
- Biodistribution: Skin [7]: 0.54 ± 0.07 % ID/g
- Biodistribution: Spleen [7]: 6.72 ± 1.91 % ID/g
- Biodistribution: Stomach [7]: 0.91 ± 0.06 % ID/g
- Biodistribution: Testes [7]: 0.51 ± 0.09 % ID/g
- Biodistribution: Thymus [7]: 1.39 ± 0.29 % ID/g
- Biodistribution: Thyroid [7]: 13.04 ± 3.22 % ID/g
- Biodistribution: Bone [8]: 2.04 ± 0.09 % ID/g
- Biodistribution: Lungs [8]: 5.68 ± 1.03 % ID/g
- Biodistribution: Skin [8]: 0.46 ± 0.02 % ID/g
- Biodistribution: Bone [9]: 4.32 ± 0.33 % ID/g
- Biodistribution: Lungs [9]: 3.02 ± 0.39 % ID/g
- Biodistribution: Skin [9]: 0.63 ± 0.04 % ID/g
- Biodistribution: Adrenals [10]: 17.81 ± 3.61 % ID/g
- Biodistribution: Bladder [10]: 1.33 ± 0.17 % ID/g
- Biodistribution: Blood [10]: 0.12 ± 0.02 % ID/g
- Biodistribution: Bone [10]: 4.86 ± 0.86 % ID/g
- Biodistribution: Brain [10]: 0.10 ± 0.02 % ID/g
- Biodistribution: GIT [10]: 2.01 ± 0.27 % ID/g
- Biodistribution: Heart [10]: 4.92 ± 0.66 % ID/g
- Biodistribution: Kidney [10]: 2.57 ± 0.48 % ID/g
- Biodistribution: Liver [10]: 0.44 ± 0.07 % ID/g
- Biodistribution: Lungs [10]: 3.37 ± 0.40 % ID/g
- Biodistribution: Muscle [10]: 0.19 ± 0.05 % ID/g
- Biodistribution: Olfactory bulbs [10]: 0.47 ± 0.06 % ID/g
- Biodistribution: Pancreas [10]: 0.61 ± 0.10 % ID/g
- Biodistribution: Skin [10]: 0.71 ± 0.07 % ID/g
- Biodistribution: Spleen [10]: 3.45 ± 0.43 % ID/g
- Biodistribution: Stomach [10]: 0.51 ± 0.06 % ID/g
- Biodistribution: Testes [10]: 0.67 ± 0.08 % ID/g
- Biodistribution: Thymus [10]: 1.88 ± 0.40 % ID/g
- Biodistribution: Thyroid [10]: 8.91 ± 1.19 % ID/g
